In ChEMBL document CHEMBL1140507, “Synthesis and evaluation of N-acylsulfonamide and N-acylsulfonylurea prodrugs of a prostacyclin receptor agonist” (Bioorg Med Chem, 2007):

Assays:
Liver microsomes [1] = experiment: Hydrolytic rate in human hepatic microsomes assessed as 2-(4-((5,6-diphenylpyrazin-2-yl)(isopropyl)amino)butoxy)acetic acid production per mg of protein at 10 uM; assay type: ADME, Microsome
[2] = Hydrolytic rate in cynomolgus monkey hepatic microsomes assessed as 2-(4-((5,6-diphenylpyrazin-2-yl)(isopropyl)amino)butoxy)acetic acid production per mg of protein at 10 uM; assay type: ADME, Macaca fascicularis, Liver
Cynomolgus monkey [3] = experiment: Tmax in cynomolgus monkey assessed as 2-(4-((5,6-diphenylpyrazin-2-yl)(isopropyl)amino)butoxy)acetic acid level at 1 mg/kg, po; assay type: ADME, organism-based, Macaca fascicularis; parameters: dose 1 mg/kg, route oral; conditions: in vivo
[4] = Hydrolytic rate in Beagle dog hepatic microsomes assessed as 2-(4-((5,6-diphenylpyrazin-2-yl)(isopropyl)amino)butoxy)acetic acid production per mg of protein at 10 uM; assay type: ADME, Canis lupus familiaris, Liver
Cynomolgus monkey [5] = experiment: Half life in cynomolgus monkey assessed as 2-(4-((5,6-diphenylpyrazin-2-yl)(isopropyl)amino)butoxy)acetic acid at 1 mg/kg, po; assay type: ADME, organism-based, Macaca fascicularis; parameters: dose 1 mg/kg, route oral; conditions: in vivo
[6] = Hydrolytic rate in cynomolgus monkey hepatic microsomes assessed as 2-(4-((5,6-diphenylpyrazin-2-yl)(isopropyl)amino)butoxy)acetic acid production in presence of 10 uM PMSF relative to control; assay type: ADME, Macaca fascicularis, Liver; parameters: scale not given: the % may be the effect or the level left
[7] = Hydrolytic rate in cynomolgus monkey hepatic microsomes assessed as 2-(4-((5,6-diphenylpyrazin-2-yl)(isopropyl)amino)butoxy)acetic acid production in presence of 1000 uM PMSF relative to control; assay type: ADME, Macaca fascicularis, Liver; parameters: scale not given: the % may be the effect or the level left
Cynomolgus monkey [8] = experiment: Cmax in cynomolgus monkey assessed as 2-(4-((5,6-diphenylpyrazin-2-yl)(isopropyl)amino)butoxy)acetic acid level at 1 mg/kg, po; assay type: ADME, organism-based, Macaca fascicularis; parameters: dose 1 mg/kg, route oral; conditions: in vivo
Liver microsomes [9] = experiment: Hydrolytic rate in Sprague-Dawley rat hepatic microsomes assessed as 2-(4-((5,6-diphenylpyrazin-2-yl)(isopropyl)amino)butoxy)acetic acid production per mg of protein at 10 uM; assay type: ADME, Microsome
Plasma = experiment: Hydrolytic rate in Sprague-Dawley rat plasma assessed as 2-(4-((5,6-diphenylpyrazin-2-yl)(isopropyl)amino)butoxy)acetic acid production per mg of protein at 10 uM; assay type: ADME, cell-free
Cynomolgus monkey [10] = experiment: AUC (0 to 24 hrs) in cynomolgus monkey assessed as 2-(4-((5,6-diphenylpyrazin-2-yl)(isopropyl)amino)butoxy)acetic acid at 1 mg/kg, po; assay type: ADME, organism-based, Macaca fascicularis, Plasma; parameters: time < 24 hr, dose 1 mg/kg, route oral; conditions: in vivo
[11] = Hydrolytic rate in cynomolgus monkey hepatic microsomes assessed as 2-(4-((5,6-diphenylpyrazin-2-yl)(isopropyl)amino)butoxy)acetic acid production in presence of 100 uM PMSF relative to control; assay type: ADME, Macaca fascicularis, Liver; parameters: scale not given: the % may be the effect or the level left

SMILES	Activity (Liver microsomes [1]) [nmol/min]	Activity [2] [nmol/min]	Tmax (Cynomolgus monkey [3]) [h]	Activity [4] [nmol/min]	t1/2 (Cynomolgus monkey [5]) [h]	Activity [6] [%]	Activity [7] [%]	Cmax (Cynomolgus monkey [8]) [ng/mL]	Activity (Liver microsomes [9]) [nmol/min]	Activity (Plasma) [nmol/min]	AUC (Cynomolgus monkey [10]) [ng·h/mL]	Activity [11] [%]
CC(C)N(CCCCOCC(=O)NS(=O)(=O)c1ccccc1)c1cnc(-c2ccccc2)c(-c2ccccc2)n1	0.017	0.711										
CC(C)N(CCCCOCC(=O)NS(=O)(=O)N1CCOCC1)c1cnc(-c2ccccc2)c(-c2ccccc2)n1	0.015	0.208										
CC(C)N(CCCCOCC(=O)NS(C)(=O)=O)c1cnc(-c2ccccc2)c(-c2ccccc2)n1 [SELEXIPAG]	0.019	0.057	14	0.03	10.7	21.4	0	35	0.09	0.5	859	0
CC(C)N(CCCCOCC(=O)NS(=O)(=O)C(C)C)c1cnc(-c2ccccc2)c(-c2ccccc2)n1	0.012	0.152	10		14.5			13			170	
CC(C)N(CCCCOCC(=O)NS(=O)(=O)c1cccs1)c1cnc(-c2ccccc2)c(-c2ccccc2)n1	0.008	0.468										
CC(C)N(CCCCOCC(=O)NS(=O)(=O)C(F)(F)F)c1cnc(-c2ccccc2)c(-c2ccccc2)n1	0.024	0.06	4		8.5			31			308	
CC(C)N(CCCCOCC(=O)NS(N)(=O)=O)c1cnc(-c2ccccc2)c(-c2ccccc2)n1	0.03	0.112	6					20			374	
